Data as given in patent US5087704A, “Cyanine compounds” (Asahi Chemical Co., Ltd., priority 1988, dated 1992).

What was measured:
[1] = Wavelength at maximum absorption and molar absorptivity of the cyanine compounds; format: physicochemical
[2] = Solubility in solvent; format: physicochemical; conditions: diacetone alcohol, room temperature
Method: Each of cyanine dyes as shown below in Table 2 was dissolved in diacetone alcohol and the solubility was measured at room temperature.

Row | Structure (SMILES) | molar absorptivity (ε) [1] [L/mol/cm] | wavelength at maximum absorption (λmax) ([1]; methanol) [nm] | Solubility (g/l) [2] | Solubility [2] [mg/mL] | wavelength at maximum absorption (λmax) ([1]; diacetone alcohol) [nm] | wavelength at maximum absorption (λmax) ([1]; solvent not given) [nm]
1 | CCCCN1C(=CC=CC=CC2=[N+](CCCC)c3cc4c(cc3C2(C)C)OCO4)C(C)(C)c2cc3c(cc21)OCO3 [Preparation Example 1] | 176000 | 696 | At least 30 g/l |  |  | 
2 | CCN1C(=CC=CC=CC2=[N+](CC)c3cc4c(cc3C2(C)C)OCO4)C(C)(C)c2cc3c(cc21)OCO3 [Preparation Example 2] |  | 694 |  | 30 |  | 
3 | COCCN1C(=CC=CC=CC=CC2=[N+](CCOC)c3cc4c(cc3C2(C)C)OCO4)C(C)(C)c2cc3c(cc21)OCO3 [Preparation Example 3] |  | 793 |  |  |  | 
4 | CCCCN1C(=CC=CC=CC2=[N+](CCCC)c3cc4c(cc3C2(C)C)OC(C)C4)C(C)(C)c2cc3c(cc21)CC(C)O3 (centres unmarked) [Preparation Example 4] | 194000 |  | At least 30 g/l |  | 695 | 
5 | CCCCN1C(=CC=CC=CC2=[N+](CCCC)c3cc4c(cc3C2(C)C)CC(C)O4)C(C)(C)c2cc3c(cc21)OC(C)C3 (centres unmarked) [Preparation Example 5] | 190000 |  | At least 30 g/l |  | 688 | 
6 | CCCCN1C(=CC=CC=CC2=[N+](CCCC)c3cc4c(cc3C2(C)C)CCC4)C(C)(C)c2cc3c(cc21)CCC3 [Preparation Example 6] | 224000 |  |  |  | 670 | 
7 | CCOCCN1C(=CC=CC=CC2=[N+](CCOCC)c3cc4c(cc3C2(C)C)CCC4)C(C)(C)c2cc3c(cc21)CCC3 [Preparation Example 7] | 220000 |  |  | 30 | 672 | 
8 | CC(=O)OCCN1C(=CC=CC=CC=CC2=[N+](CCOC(C)=O)c3cc4c(cc3C2(C)C)CCC4)C(C)(C)c2cc3c(cc21)CCC3 [Preparation Example 8] | 228000 |  |  |  |  | 768
9 | COCCN1C(=CC=CC=CC=CC2=[N+](CCOC)c3cc4c(cc3C2(C)C)CCC4)C(C)(C)c2cc3c(cc21)CCC3 [Preparation Example 9] |  |  |  |  |  | 768
10 | CC1(C)C(=CC=CC=CC2=[N+](CCO)c3cc4c(cc3C2(C)C)OCO4)N(CCO)c2cc3c(cc21)OCO3 [Preparation Example 10] |  |  | At least 30 g/l |  | 695 | 
11 | CC1(C)C(=CC=CC=CC=CC2=[N+](CCS(=O)(=O)O)c3cc4c(cc3C2(C)C)OCO4)N(CCS(=O)(=O)O)c2cc3c(cc21)OCO3 [Preparation Example 11] | 160000 | 790 |  |  |  | 
12 | CCCCN1C(=CC=CC=CC=CC2=[N+](CCCC)c3cc4c(cc3C2(C)C)OC(C)C4)C(C)(C)c2cc3c(cc21)CC(C)O3 (centres unmarked) [Preparation Example 12] | 193000 | 795 |  |  |  | 
